Measured values taken from article PMC12869562 (Research Square, 2026).
No end group written: not given here.

Assay: In vitro plasma stability
Format: in vitro ADME, mouse (C57BL/6)
Settings: C57BL/6, mouse, read-out: half-life t1/2 (in vitro plasma) (converted)
Description: Each aliquot (50 μl) was mixed with 150 μl methanol, vortexed, spun, removed the supernatant and reconstituted the pellet with 150 μl 10% formic acid in water. The sample was vortexed and spun and a 100 μl aliquot was taken, diluted 1:1 with 10 mM ammonium bicarbonate, and analyzed by LC-MS/MS. Using the remaining vs. time dataset, we performed a first-order decay analysis by fitting a linear regression to the natural log-transformed percent remaining values (excluding 0% and t = 0 anchor point) to plot the graph.

SSMKLSFRARAYGFRGPGPQL [CST, Catestatin]
half-life at 5 μg/ml: 334 min
